Experimental data reported in paper PMC5818482, “Experimental study of the anti-tumour activity and pharmacokinetics of arctigenin and its valine ester derivative” (Scientific Reports, 2018).
Values after ≈ are worked out from the molar mass of the structure shown. Values joined by “and” are separate entries in the source; they are usually repeats but may differ in a detail not shown here. Equal values may be shown once. Read-outs that look alike come from different tables or passages of the source.

What was measured:
H22 tumour-bearing mice = assay: Serum ALT, AST, BUN and CRE in H22 tumour-bearing mice; conditions: for BUN / CRE: Fig. 2(b); for Serum ALT / Serum AST: Fig. 2(a)
Description: (§1) To prepare the ascitic tumour-bearing model, 0.2 mL of the cell suspension (1 × 10^5 cells/mouse) was injected into the shoulder of the right limb subcutaneously in each mouse. Twenty-four hours after the tumour inoculation with H22 cells, the ICR mice were divided into 7 groups as follows: the normal group, the model group, the cyclophosphamide (CTX) group, the ARG group, the high dose ARG-V group, the middle dose ARG-V group, and the low dose ARG-V group. The positive control group received CTX at a dosage of 25 mg/kg by intraperitoneal injection. The model group and the normal group were treated with the same amount of normal saline by P.O. once a day. The mice were given an ARG suspension solution mixed with sodium carboxymethyl cellulose at a daily dose of 40 mg/kg, and ARG-V dissolved in saline at different dosages was administered orally. The mice in each group were treated continuously for 14 days. Before and after each drug administration, the size of the tumours were measured, and the weights of the mice were recorded. Twenty-four hours after the last administration, the mice were killed by cervical dislocation, and blood samples were collected from the eyes of the mice. The tumour, spleen, and thymus of the mice were taken out and weighed on an electronic balance.
AST and ALT are clinical indexes of liver function, used in medicine to judge whether the liver is damaged. BUN and CRE are used to judge whether the kidney is damaged. They were analysed by a commercially available reagent kit according to the instructions.

[1] = Stability of ARG QC samples in rat plasma; format: in vitro ADME; conditions: three concentrations; room temperature 12 hours, −20 °C for a month, three freeze-thaw cycles
Description: The ARG stock solution was diluted with plasma to make quality control (QC) samples, and the QC samples were prepared at three concentrations of low, medium and high (0.02, 0.1, and 2 μg/mL). The QC samples were kept at room temperature for 12 h, and freeze-thaw cycles were repeated 3 times. The QC samples were kept at −20 °C for 30 days.

[2] = system: H22 hepatocellular carcinoma; assay: In vivo anti-tumour experiment in H22 tumour-bearing mice (tumour growth, body weight, immune organ indexes); conditions: 14 days
Source text: SPF (specific pathogen free) grade, male ICR mice with body weights ranging from 19 to 21 g were obtained from the Laboratory Animal Quality Testing Center of Jilin Province. The ICR mice were divided into 7 groups as follows: the normal group, the model group, the cyclophosphamide (CTX) group, the ARG group, the high dose ARG-V group, the middle dose ARG-V group and the low dose ARG-V group. H22 hepatocarcinoma cells were purchased from the Institute of Biochemistry and Cell Biology, CAS.
as §1

Beagle dogs = system: Beagle dogs; set-up: method as in earlier work; conditions: cited from earlier work
[3] = Solubility according to the Chinese Pharmacopoeia, 2015 edition; format: physicochemical; conditions: for Solubility in Acetonitrile: solvent acetonitrile; for Solubility in Acetonitrile:water 45:55: solvent acetonitrile:water 45:55; for Solubility in Cloroform: solvent chloroform; for Solubility in Ethyl acetate: solvent ethyl acetate; for Solubility in Water: solvent water
Description: Solubility is a physical property of the drug. The reaction was performed according to the Chinese Pharmacopoeia, 2015 edition.

[4] = Pharmacokinetics after oral (intragastric) administration to rats, plasma ARG by HPLC, 3P97 fit; format: in vivo, Wistar rats; conditions: for AUC / CL/F(s): intragastric, X ± SD, n = 6; for AUC value: oral
Description: Male Wistar rats (8 weeks, 230–250 g) were purchased from Liaoning Changsheng Biotechnology Co., Ltd. (Certificate No. SCXK-2015-0001) and acclimated to the laboratory environment for 1 week.
After the frozen plasma thawed, a 0.2 mL rat plasma sample was placed in an Eppendorf tube containing 5 µL of the IS working solution and 1 mL of acetonitrile with 0.1% formic acid and mixed evenly with a turbine mixer for 3 minutes. It was then separated by centrifugation (12000 rpm, 10 min, 4 °C). The supernatant was withdrawn and evaporated to dryness under N2. The dry residue was reconstituted by mixing it with 50 μL of acetonitrile for 1 minute and separated by centrifugation (16000 rpm, 5 min, 4 °C), and a 20 μL aliquot was injected into the HPLC system for analysis.
The rats received ARG and ARG-V by oral administration. Blood samples were obtained via the oculi chorioideae vein before oral administration and at 1, 3, 5, 10, 15, 30, 45, 60, 90, 120, 150, 180, 240, and 360 min after administration. The whole blood samples were separated by centrifugation (8000 rpm, 10 min), and the plasma was obtained and stored at −20 °C until analysis.
Analytes were separated on a Thermo BDS HYPERSIL C18 column (4.6 × 250 mm, 5 μm) at a flow rate of 1.0 mL/min. The column was maintained at 30 °C. The mobile phase consisted of acetonitrile and 0.1% formic acid water (45:55 v/v). Detection was done at a wavelength of 280 nm.
The values are presented as the mean ± standard deviation (SD). The concentration-time curve was drawn, and data were processed using the 3P97 software.

[5] = Nitrite scavenging activity, diazo coupling spectrophotometric method (in vitro anti-tumour experiment)
Source text: Numerous methods for nitrite clearance have been reported, such as spectrophotometric, chromatographic-mass spectrometric, electrochemical, and fluorescence methods. Considering various factors, we decided to use diazo coupling spectrophotometry to perform this experiment. […] On the other hand, it may be that ARG-V also has the ability to bind nitrite such that the nitrite content decreased, achieving the purpose of clearing nitrite.
Our team has studied the […] scavenging activity of ARG and ARG-V using diazo coupling spectrophotometric method.

[6] = set-up: method as in PMID 27685612; conditions: patients with advanced pancreatic cancer refractory to gemcitabine; second peaks indicate enterohepatic circulation; cited from earlier work
[7] = system: serum cytokines TNF-α, IL-2, VEGF; assay: Serum cytokines (TNF-α, IL-2, VEGF) by ELISA in H22 tumour-bearing mice; format: in vivo, ICR mice; conditions: for Expression level of IL-2: compared to the tumour model group; for Expression level of IL-2 / Serum TNF-α level: Fig. 2(c); for Serum VEGF: Fig. 2(d)
Description: as §1
The serum levels of the cytokines IL-2, IL-6, VEGF and TNF-α were analysed using a commercially available ELISA kit according to the manufacturer’s instruction.

[8] = 40 mg/kg oral daily, mean ± SD, n = 8
[9] = first of three concentrations (low dosage)
[10] = second of three concentrations (middle dosage)
[11] = third of three concentrations (high dosage)
[12] = concentration 0.125 mg/mL, in % (unit assumed)
[13] = concentration 0.25 mg/mL, in % (unit assumed)
[14] = concentration 0.5 mg/mL, in % (unit assumed)
[15] = concentration 1 mg/mL, in % (unit assumed)
[16] = concentration 2 mg/mL, in % (unit assumed)
[17] = concentration 4 mg/mL, in % (unit assumed)
[18] = 25 mg/kg intraperitoneal, mean ± SD, n = 8

Compound | BUN (H22 tumour-bearing mice; compared to the CTX group) | Serum ALT (H22 tumour-bearing mice; compared to the model group) | Serum AST (H22 tumour-bearing mice; compared to the model group) | Inhibitory rate ([2]; 40 mg/kg oral daily) | Tumor weight [2, 8] | Solubility in Acetonitrile [3] | Solubility in Acetonitrile:water 45:55 [3] | Solubility in Cloroform [3] | Solubility in Ethyl acetate [3] | Solubility in Water [3] | AUC value [4, 9] [ng·h/mL] | AUC value [4, 10] [ng·h/mL] | AUC value [4, 11] [ng·h/mL] | IC50 (nitrite scavenging) [5] [µg/mL] | Clearance rate on nitrite [5, 12] | Clearance rate on nitrite [5, 13] | Clearance rate on nitrite [5, 14] | Clearance rate on nitrite [5, 15] | Clearance rate on nitrite [5, 16] | Clearance rate on nitrite [5, 17] | other results
COc1cc(C[C@H]2C(=O)OC[C@@H]2Cc2ccc(OC)c(OC)c2)ccc1O [ARG, Arctigenin] | no significant difference | decreased | decreased | 26.26% | 1.32 ± 0.34 g | very soluble | very soluble | freely soluble | freely soluble | almost insoluble | 228 | 316 | 424 | 17490 (≈ 47 mM) | 17.60 ± 0.02 | 23.41 ± 0.02 | 27.72 ± 0.03 | 31.09 ± 0.02 | 34.46 ± 0.02 | 39.14 ± 0.07 | CRE (H22 tumour-bearing mice; compared to the CTX group): no significant difference; Stability in rat plasma QC samples [1]: good results; Toxicity in Beagle dogs (Beagle dogs; 60 mg/kg group, subcutaneous injection, except the stimulus response at the administration location): no overt toxicity; Toxicity in Beagle dogs (Beagle dogs; repeated subcutaneous injection of large doses): can induce injury to the liver and biliary duct; AUC ([4]; high dosage): 25419.859 ± 5497.001 (ng/mL)*min; CL/F(s) ([4]; high dosage): 0.009 ± 0.003 mg/kg/min/(ng/mL); AUC ([4]; low dosage): 13687.547 ± 3050.502 (ng/mL)*min; CL/F(s) ([4]; low dosage): 0.004 ± 0.001 mg/kg/min/(ng/mL); AUC ([4]; middle dosage): 18971.963 ± 5515.267 (ng/mL)*min; CL/F(s) ([4]; middle dosage): 0.006 ± 0.003 mg/kg/min/(ng/mL); Form of ARG in patients [6]: exists as arctigenin glucuronide (AGG)
COc1ccc(CC2COC(=O)C2Cc2ccc(OC(=O)C(N)C(C)C)c(OC)c2)cc1OC (stereo not drawn) [ARG-V] | significant difference | decreased | decreased | 69.2% and 69.27% | 0.55 ± 0.15^**,aa g | slight soluble | very soluble | freely soluble | almost insoluble | freely soluble | 253 | 391 | 574 | 2190 (≈ 4.64 mM) | 20.22 ± 0.00 | 27.90 ± 0.05 | 35.21 ± 0.07 | 45.51 ± 0.01 | 64.04 ± 0.01 | 69.10 ± 0.04 | Expression level of IL-2 [7]: significantly higher; Serum VEGF ([7]; compared with the model group): decreased; Serum TNF-α level ([7]; three doses, compared with the CTX group): increased significantly; BUN (H22 tumour-bearing mice; compared to the model group): decreased significantly; CRE (H22 tumour-bearing mice; compared to the model group): decreased significantly; Inhibitory rate ([2]; 20 mg/kg oral daily): 42.46%; Tumor weight ([2]; 20 mg/kg oral daily, mean ± SD, n = 8): 1.03 ± 0.19^**,##,a g; Inhibitory rate ([2]; 80 mg/kg oral daily): 63.13%; Tumor weight ([2]; 80 mg/kg oral daily, mean ± SD, n = 8): 0.66 ± 0.17^**,#,aa g; Increase of nitrite removal ability compared with ARG ([5]; concentration 4 mg/mL): more than 75%
O=P1(N(CCCl)CCCl)NCCCO1 (stereo not drawn) [CTX, Cyclophosphamide] | – | obviously increased | obviously increased | – | – | – | – | – | – | – | – | – | – | – | – | – | – | – | – | – | Expression level of IL-2 [7]: obviously decreased; Serum TNF-α level ([7]; compared with the model group): significantly decreased; Serum VEGF ([7]; compared with the model group): decreased significantly; Increase of body weight ([2]; 25 mg/kg intraperitoneal): 4.37 g; Inhibitory rate ([2]; 25 mg/kg intraperitoneal): 72.06%; Spleen index [2, 18]: 4.40 ± 0.40 mg/g; Thymus index [2, 18]: 1.24 ± 0.20 mg/g; Tumor weight [2, 18]: 0.50 ± 0.11 g
O=C1O[C@H]([C@@H](O)CO)C(O)=C1O [VC] | – | – | – | – | – | – | – | – | – | – | – | – | – | 690 (≈ 3.92 mM) | – | – | – | – | – | – | Clearance rate on nitrite ([5]; concentration 0.125 mg/mL): 7.30 ± 0.06; Clearance rate on nitrite ([5]; concentration 0.25 mg/mL): 17.23 ± 0.00; Clearance rate on nitrite ([5]; concentration 0.5 mg/mL): 25.84 ± 0.03; Clearance rate on nitrite ([5]; concentration 1 mg/mL): 54.49 ± 0.02; Clearance rate on nitrite ([5]; concentration 2 mg/mL): 96.32 ± 0.00; Clearance rate on nitrite ([5]; concentration 4 mg/mL): 97.75 ± 0.00
